{"source": "paper PMC4573928", "about": "(Cancer chemotherapy and pharmacology, 2015)", "key": {"[1]": {"details": "cited from earlier work"}, "[2]": {"assay": "Human pilot pharmacokinetic study of IV and PO FdCyd and THU", "details": "humans; after PO dosing; FC detected in 4 out of the 7 patients"}, "[3]": {"assay": "Plasma pharmacokinetics of FdCyd, metabolites and THU in cynomolgus monkeys", "details": "for Detection of metabolites in plasma: four animals; for Concentrations, fold lower than those of parent FdCyd: PO FdCyd 1 h after 500 mg/kg PO THU; for Detection in plasma: PO FdCyd at 1 and 10 mg/kg 1 h after PO THU; for AUC(0-inf): AUC0-inf; for AUC(0-t): AUC0-t"}, "[4]": {"tested_on": "cynomolgus monkeys", "details": "THU (500 mg/kg) and FdCyd (0.1, 1.0 or 10.0 mg/kg) PO QDx3 every week, 3 or 4 repeat 1 week cycles"}, "[5]": {"details": "monkeys, FdCyd 0.1 mg/kg PO 1 h after 500 mg/kg THU PO"}, "[6]": {"details": "both, cynomolgus monkey, plasma, iv, analyte FdCyd, FdCyd 8 mg/kg 3 h IV infusion with THU 30 mg/kg IV, N=2, mean (±SD)"}, "[7]": {"details": "both, cynomolgus monkey, plasma, po, 10 mg/kg, analyte FdCyd, FdCyd 10 mg/kg PO 1 h after THU 150 mg/kg PO, N=4, mean (±SD)"}, "[8]": {"details": "both, cynomolgus monkey, plasma, po, 10 mg/kg, analyte FdCyd, FdCyd 10 mg/kg PO 1 h after THU 500 mg/kg PO, N=4, mean (±SD)"}}, "note": "Values joined by “and” are separate entries in the source; they are usually repeats but may differ in a detail not shown here. Identical values can stand only once. “Also recorded” adds a separate entry of the source.", "data": [{"molecule": "Nc1ncn([C@@H]2O[C@H](CO)[C@@H](O)[C@H]2O)c(=O)n1", "note": "[5-aza-cytidine]", "values": [{"measurement": "Chemical stability", "setting": "[1]", "result": "unstable"}]}, {"molecule": "Nc1nc(=O)[nH]cc1F", "note": "[FC, 5-fluorocytosine]", "values": [{"measurement": "Overall maximum plasma concentration of FC observed", "setting": "[2]", "result": 36.9, "unit": "ng/mL"}, {"measurement": "FC in plasma", "setting": "[3]; monkeys, 10 mg/kg FdCyd PO after 150 mg/kg THU PO", "result": "no FC was detected"}, {"measurement": "FC in plasma", "setting": "[3]; monkeys, 10 mg/kg FdCyd PO after 150 mg/kg THU PO, listed as 5-FC", "result": "not after 150 mg/kg THU"}, {"measurement": "FC in plasma", "setting": "[3]; monkeys, 10 mg/kg FdCyd PO with 500 mg/kg THU PO", "result": "Low levels of FC were also detected"}, {"measurement": "FC in plasma", "setting": "[3]; monkeys, 10 mg/kg FdCyd PO with 500 mg/kg THU PO, listed as 5-FC", "result": "observed"}, {"measurement": "Detection of metabolites in plasma", "setting": "[3]; [5]", "result": "No FU or FC was detected"}]}, {"molecule": "O=c1[nH]cc(F)c(=O)[nH]1", "note": "[FU, 5-fluorouracil]", "values": [{"measurement": "Detection of metabolites in plasma", "setting": "[3]; [5]", "result": "No FU or FC was detected"}, {"measurement": "Concentrations, fold lower than those of parent FdCyd", "setting": "[3]; monkeys", "result": "approximately 10 fold"}, {"measurement": "Detection in plasma", "setting": "[3]; monkeys", "result": "detectable plasma concentrations"}]}, {"molecule": "O=c1[nH]c(=O)n([C@@H]2O[C@H](CO)[C@@H](O)[C@H]2O)cc1F", "note": "[FUrd, 5-fluorouridine]", "values": [{"measurement": "FUrd peaks in plasma samples", "setting": "[3]; any of the samples, detectable down to approximately 30 ng/mL", "result": "no FUrd peaks were detected"}]}, {"molecule": "Nc1nc(=O)n([C@H]2C[C@H](O)[C@@H](CO)O2)cc1F", "note": "[FdCyd, 5-fluoro-2’-deoxycytidine]", "values": [{"measurement": "Mortality and dose-limiting toxicity", "setting": "[4]", "result": "did not result in any mortality or any signs of dose-limiting toxicity"}, {"measurement": "AUC(0-inf)", "setting": "[3]; [6]", "result": 17800, "unit": "ng·h/mL"}, {"measurement": "AUC(0-t)", "setting": "[3]; [6]", "result": 17800, "unit": "ng·h/mL"}, {"measurement": "Cmax", "setting": "[3]; [6]", "result": 5690, "unit": "ng/mL"}, {"measurement": "Tmax", "setting": "[3]; both, cynomolgus monkey, plasma, iv, Tmax, analyte FdCyd, FdCyd 8 mg/kg 3 h IV infusion with THU 30 mg/kg IV, N=2, mean (±SD)", "result": 1.75, "unit": "h"}, {"measurement": "half-life", "setting": "[3]; both, cynomolgus monkey, plasma, iv, T½, analyte FdCyd, FdCyd 8 mg/kg 3 h IV infusion with THU 30 mg/kg IV, N=2, mean (±SD)", "result": 0.87, "unit": "h"}, {"measurement": "Tmax", "setting": "[3]; both, cynomolgus monkey, plasma, po, 0.1 mg/kg, Tmax for FdCyd (mean), monkeys, FdCyd 0.1 mg/kg PO 1 h after 500 mg/kg THU PO", "result": 0.25, "unit": "h"}, {"measurement": "Tmax", "setting": "[3]; both, cynomolgus monkey, plasma, po, 1 mg/kg, Tmax for FdCyd (mean), monkeys, FdCyd 1 mg/kg PO 1 h after 500 mg/kg THU PO", "result": 0.5, "unit": "h"}, {"measurement": "AUC(0-inf)", "setting": "[3]; [7]", "result": 1930, "unit": "ng·h/mL"}, {"measurement": "AUC(0-inf)", "setting": "[3]; [8]", "result": 5400, "unit": "ng·h/mL"}, {"measurement": "AUC(0-t)", "setting": "[3]; [7]", "result": 1870, "unit": "ng·h/mL"}, {"measurement": "AUC(0-t)", "setting": "[3]; [8]", "result": 5280, "unit": "ng·h/mL"}, {"measurement": "CL/F", "setting": "[3]; [7]", "result": 126, "unit": "mL/min/kg"}, {"measurement": "CL/F", "setting": "[3]; [8]", "result": 53, "unit": "mL/min/kg"}, {"measurement": "Cmax", "setting": "[3]; [7]", "result": 1180, "unit": "ng/mL"}, {"measurement": "Cmax", "setting": "[3]; [8]", "result": 2030, "unit": "ng/mL"}, {"measurement": "bioavailability", "setting": "[3]; both, cynomolgus monkey, plasma, po, 10 mg/kg, F (PO bioavailability), analyte FdCyd, FdCyd 10 mg/kg PO 1 h after THU 150 mg/kg PO, relative to 4, 8, and 16 mg/kg FdCyd IV with 30 mg/kg THU", "result": 8.9, "unit": "%"}, {"measurement": "bioavailability", "setting": "[3]; both, cynomolgus monkey, plasma, po, 10 mg/kg, F (PO bioavailability), analyte FdCyd, FdCyd 10 mg/kg PO 1 h after THU 500 mg/kg PO, relative to 4, 8, and 16 mg/kg FdCyd IV with 30 mg/kg THU", "result": 25, "unit": "%"}, {"measurement": "Tmax", "setting": "[3]; both, cynomolgus monkey, plasma, po, 10 mg/kg, Tmax for FdCyd (mean), monkeys, FdCyd 10 mg/kg PO 1 h after 500 mg/kg THU PO", "result": 1.38, "unit": "h"}, {"measurement": "Tmax", "setting": "[3]; both, cynomolgus monkey, plasma, po, 10 mg/kg, Tmax, analyte FdCyd, FdCyd 10 mg/kg PO 1 h after THU 150 mg/kg PO, N=4, mean (±SD)", "result": 1.25, "unit": "h"}, {"measurement": "Tmax", "setting": "[3]; both, cynomolgus monkey, plasma, po, 10 mg/kg, Tmax, analyte FdCyd, FdCyd 10 mg/kg PO 1 h after THU 500 mg/kg PO, N=4, mean (±SD)", "result": 1.38, "unit": "h"}, {"measurement": "half-life", "setting": "[3]; both, cynomolgus monkey, plasma, po, 10 mg/kg, T½, analyte FdCyd, FdCyd 10 mg/kg PO 1 h after THU 150 mg/kg PO, N=4, mean (±SD)", "result": 1.23, "unit": "h"}, {"measurement": "half-life", "setting": "[3]; both, cynomolgus monkey, plasma, po, 10 mg/kg, T½, analyte FdCyd, FdCyd 10 mg/kg PO 1 h after THU 500 mg/kg PO, N=4, mean (±SD)", "result": 0.63, "unit": "h"}, {"measurement": "half-life", "setting": "[3]; both, cynomolgus monkey, plasma, po, Plasma terminal half-life of FdCyd, monkeys, range over groups receiving 0.1, 1.0, and 10 mg/kg PO FdCyd 1 h after 500 mg/kg PO THU", "result": "0.4 to 2.7", "unit": "h"}, {"measurement": "clearance", "setting": "[3]; both, cynomolgus, cynomolgus monkey, plasma, iv", "result": "~15", "unit": "mL/min/kg"}, {"measurement": "half-life", "setting": "[3]; both, cynomolgus, cynomolgus monkey, plasma, iv, FdCyd half-life, monkeys, after IV FdCyd and THU administration, range", "result": "0.367 to 0.933", "unit": "h"}, {"measurement": "bioavailability", "setting": "[3]; both, cynomolgus, cynomolgus monkey, plasma, po, FdCyd PO bioavailability after THU, monkeys, range, increased with increasing THU dose", "result": "9 to 25", "unit": "%"}, {"measurement": "Plasma concentrations of FdCyd or downstream metabolites", "setting": "[3]; monkeys, 10 mg/kg PO FdCyd without THU, 10 mg/kg", "result": "not detectable; also recorded: undetectable"}, {"measurement": "Detectable plasma concentrations of FdCyd (range per animal)", "setting": "[3]; monkeys, FdCyd 0.1 mg/kg PO 1 h after 500 mg/kg THU PO, two of four animals", "result": "22.6 to 117.2 ng/mL and 34.1 to 152.2 ng/mL"}]}, {"molecule": "O=c1[nH]c(=O)n([C@H]2C[C@H](O)[C@@H](CO)O2)cc1F", "note": "[FdUrd, 5-fluoro-2’-deoxyuridine]", "values": [{"measurement": "Detection of metabolites in plasma", "setting": "[3]; [5]", "result": "three had detectable plasma concentrations of FdUrd out to 60 min"}, {"measurement": "Concentrations, fold lower than those of parent FdCyd", "setting": "[3]; monkeys", "result": "approximately 10 fold"}, {"measurement": "Detection in plasma", "setting": "[3]; monkeys", "result": "detectable plasma concentrations"}]}, {"molecule": "Nc1ncn([C@H]2C[C@H](O)[C@@H](CO)O2)c(=O)n1", "note": "[decitabine]", "values": [{"measurement": "Chemical stability", "setting": "[1]", "result": "unstable"}]}]}
